Test results from paper PMC12467033, “Exploring the Inhibitory Potential of Six Porphyrin Compounds Against α-Amylase and α-Glucosidase Linked to Diabetes” (Biomolecules, 2025).
Where “and” joins values, the source holds several entries; their conditions need not be identical. Equal entries are not always repeated. Where two headings read alike, the source gives them in different places.

Key:
α-amylase [1] = molecular target: T1, α-amylase (Sus scrofa, UniProt P00690); assay: Mode of α-AMY inhibition (reversibility, Lineweaver–Burk kinetics); assay type: biochemical
T1 sequence (P00690 16-511): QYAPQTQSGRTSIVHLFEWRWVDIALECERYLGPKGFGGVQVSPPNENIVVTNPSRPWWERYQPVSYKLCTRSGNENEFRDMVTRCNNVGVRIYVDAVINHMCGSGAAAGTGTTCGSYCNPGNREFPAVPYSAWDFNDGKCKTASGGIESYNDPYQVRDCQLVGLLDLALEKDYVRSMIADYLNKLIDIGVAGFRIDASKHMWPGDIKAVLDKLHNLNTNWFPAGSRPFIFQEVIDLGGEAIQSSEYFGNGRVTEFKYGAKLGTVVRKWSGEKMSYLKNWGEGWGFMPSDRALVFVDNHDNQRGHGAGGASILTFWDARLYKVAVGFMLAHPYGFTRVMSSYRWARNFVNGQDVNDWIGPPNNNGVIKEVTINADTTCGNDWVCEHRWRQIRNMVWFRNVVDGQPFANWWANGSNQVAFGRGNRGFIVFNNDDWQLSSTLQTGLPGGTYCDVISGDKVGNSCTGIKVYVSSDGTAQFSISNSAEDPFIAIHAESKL
Source text: (§1) In the experiment, the concentration of the fixed substrate Gal-G2-α-CNP/pNPG solution was 5 mmol/L, and the concentrations of the two enzymes (100, 200, 300, 400 U/L) were used to determine the effect of different concentrations of porphyrins on enzyme activity. The concentration of the enzyme was 200 U/L, and the concentration of the substrate Gal-G2-α-CNP/pNPG solution (2.5, 5, 7.5, 10 mmol/L) was used to determine the effect of different concentrations of porphyrins on the enzyme-catalyzed substrate activity.
(§2) Upon identifying the type of inhibition, the kinetic equations vary for different inhibition types.
(§3) In the formula, v, Vmax, Km, Ki, and Kis represent the reaction rate, maximum reaction rate, Michaelis constant, and free enzyme inhibition constant, respectively, and the binding enzyme inhibition constant. [S] denotes the substrate concentration. [I] denotes the inhibitor concentration.

α-amylase [2] = molecular target: T1, α-amylase; assay: FTIR secondary structure analysis of α-AMY complexes; conditions: enzyme–porphyrin molar ratio 1:2, amide I band
Source text: (§4) A molar ratio of 1:2 (α-amylase/α-glucosidase)–porphyrin solution was placed in a cryocentrifugal concentrator and the dried solid sample was mixed with dry KBr and measured using a Nicolet IS-50 FTIR Spectrometer (ThermoFisher, Waltham, MA, USA) with a scanning range of 4000–400 cm^−1 and a resolution of 4 cm^−1. The overlapping peaks in the amide I band (1700–1600 cm^−1) were further analyzed into multiple feature sub-peaks, and quantitative analysis of the relative content of various secondary structures in proteins using curve fitting methods was performed.

α-amylase [3] = molecular target: T1, α-amylase; assay: Fluorescence quenching, binding and thermodynamics with α-amylase
Source text: In the α-amylase experiment, a series of porphyrins and amylase (200 U/L) were mixed in a volume ratio of 1:1.
The Stern–Volmer equation [35] was adopted to determine the quenching mechanisms between six porphyrin compounds and both enzymes in the experimental group, with Formula (6):(6) F0/F=1+Ksv[Q]=1+Kqτ0[Q]
The Stern–Volmer equation was adapted based on experimental data to more accurately characterize the quenching behavior [36], with Formula (7):(7) F0/F=e^Ksv[Q]=e^Kqτ0[Q]
In the formula, the fluorescence quenching ratio was calculated as F0/F, where F0 corresponds to the emission intensity of pure α-amylase solution (control) and F denotes the intensity measured after the incremental addition of porphyrin ligands. KSV and Kq denote the Stern–Volmer quenching constant and the bimolecular quenching rate constant, respectively, τ0 (10^−8 s) is the average fluorescence lifetime of the fluorophore in the absence of quencher, and [Q] indicates the concentration of porphyrin compounds.
Due to the presence of an internal filtration effect, a decrease in the fluorescence intensity of the system may occur. Therefore, all fluorescence data were corrected using Formula (8) to eliminate the internal filtration effect.(8) Fcor=Fobse^(Aex+Aem)/2
The evaluation of the interaction forces between porphyrin compounds and the two enzymes can be achieved by calculating thermodynamic parameters. When both ΔH^0 and ΔS^0 are positive, the predominant interaction force is hydrophobic. When both ΔH^0 and ΔS^0 are negative, the main forces are hydrogen bonding and van der Waals forces. When ΔH^0 < 0 and ΔS^0 > 0, the primary interaction is electrostatic attraction.
The thermodynamic parameters were calculated using Formulas (9) and (10), and then the Van’t Hoff plot for the interactions between the porphyrin compounds and the two enzymes was generated by plotting lnKa on the Y-axis versus 1/T on the X-axis.(9) lnKa=−ΔH^0/RT+ΔS^0/R (10) ΔG^0=ΔH^0−TΔS^0=−RTlnKa

α-glucosidase [4] = molecular target: T2, α-glucosidase (Saccharomyces cerevisiae, UniProt P53341); assay type: biochemical
T2 sequence (P53341 whole entry): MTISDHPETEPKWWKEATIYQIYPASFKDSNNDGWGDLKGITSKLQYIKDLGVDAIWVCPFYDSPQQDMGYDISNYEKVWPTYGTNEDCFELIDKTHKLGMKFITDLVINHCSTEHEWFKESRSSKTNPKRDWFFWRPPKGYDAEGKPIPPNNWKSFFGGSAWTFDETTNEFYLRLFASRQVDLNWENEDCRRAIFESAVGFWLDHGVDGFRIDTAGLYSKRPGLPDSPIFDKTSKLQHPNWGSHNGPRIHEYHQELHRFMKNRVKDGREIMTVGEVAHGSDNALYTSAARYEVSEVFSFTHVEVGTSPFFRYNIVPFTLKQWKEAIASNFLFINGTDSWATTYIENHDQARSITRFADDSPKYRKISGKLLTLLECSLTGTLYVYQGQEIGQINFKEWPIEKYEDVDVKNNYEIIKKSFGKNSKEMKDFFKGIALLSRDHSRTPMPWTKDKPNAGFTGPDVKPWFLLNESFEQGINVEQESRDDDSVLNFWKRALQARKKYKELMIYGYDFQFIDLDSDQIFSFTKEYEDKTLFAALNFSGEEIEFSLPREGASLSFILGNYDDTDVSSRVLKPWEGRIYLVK
Source text: as §1, §2, §3

α-glucosidase [5] = molecular target: T2, α-glucosidase; assay: FTIR secondary structure analysis of α-GLU complexes; conditions: enzyme–porphyrin molar ratio 1:2, amide I band
Source text: as §4

[6] = enzyme 100–400 U/L, substrate 5 mmol/L
[7] = enzyme–substrate complex inhibition constant
[8] = free enzyme inhibition constant

Substance: iron (III) meso-tetra (4-carboxyphenyl) porphyrin chloride [Fe–TCPP]
- Km (α-amylase [1]; C 25 μg/mL): 2.7329 ± 0.0882 µg/mL
- Vmax (α-amylase [1]; C 25 μg/mL): 0.1143 ± 0.0037 ΔOD/min
- Km (α-amylase [1]; C 50 μg/mL): 2.9384 ± 0.0447 µg/mL
- Vmax (α-amylase [1]; C 50 μg/mL): 0.0972 ± 0.0015 ΔOD/min
- Km (α-amylase [1]; C 100 μg/mL): 3.2079 ± 0.1016 µg/mL
- Vmax (α-amylase [1]; C 100 μg/mL): 0.0748 ± 0.0024 ΔOD/min
- Km (α-amylase [1]; C 150 μg/mL): 3.3360 ± 0.0508 µg/mL
- Vmax (α-amylase [1]; C 150 μg/mL): 0.0601 ± 0.0009 ΔOD/min
- Km (α-amylase [1]; C 200 μg/mL): 3.4920 ± 0.0491 µg/mL
- Vmax (α-amylase [1]; C 200 μg/mL): 0.0512 ± 0.0007 ΔOD/min
- type of inhibition of α-amylase (α-amylase [1]; Lineweaver–Burk plots): mixed type
- reversibility of inhibition of α-amylase (α-amylase [1]; [6]): reversible inhibition
- Kis (α-amylase [1]; [7]): 117.2152 ± 0.1432 µg/mL
- Ki (α-amylase [1]; [8]): 69.5865 ± 0.1284 mg/L
- Random Coil (α-amylase [2]): 22.59 ± 0.03%
- α-Helix (α-amylase [2]): 21.77 ± 0.07%
- β-Antiparallel (α-amylase [2]): 8.76 ± 0.02%
- β-Sheet (α-amylase [2]): 12.86 ± 0.04%
- β-Turn (α-amylase [2]): 34.02 ± 0.08%
- quenching mechanism of α-amylase fluorescence (α-amylase [3]; Stern–Volmer plots, 298–310 K): mixed quenching
- Ka (binding constant) (α-amylase [3]; T 298 K): 944.30 ± 0.18 ×10^5 L/mol
- Kq (α-amylase [3]; T 298 K): 4.32 ± 0.06 ×10^12 L/mol/s
- Ksv (α-amylase [3]; T 298 K): 4.32 ± 0.06 ×10^4 L/mol
- n (number of binding sites) (α-amylase [3]; T 298 K): 1.65
- ΔG^0 (α-amylase [3]; T 298 K): -45.50 ± 0.07 kJ/mol
- Ka (binding constant) (α-amylase [3]; T 304 K): 40.38 ± 0.09 ×10^5 L/mol
- Kq (α-amylase [3]; T 304 K): 3.36 ± 0.06 ×10^12 L/mol/s
- Ksv (α-amylase [3]; T 304 K): 3.36 ± 0.06 ×10^4 L/mol
- n (number of binding sites) (α-amylase [3]; T 304 K): 1.38
- ΔG^0 (α-amylase [3]; T 304 K): -38.45 ± 0.06 kJ/mol
- Ka (binding constant) (α-amylase [3]; T 310 K): 2.13 ± 0.05 ×10^5 L/mol
- Kq (α-amylase [3]; T 310 K): 3.29 ± 0.08 ×10^12 L/mol/s
- Ksv (α-amylase [3]; T 310 K): 3.29 ± 0.08 ×10^4 L/mol
- n (number of binding sites) (α-amylase [3]; T 310 K): 1.05
- ΔG^0 (α-amylase [3]; T 310 K): -31.62 ± 0.08 kJ/mol
- ΔH^0 (α-amylase [3]; Van’t Hoff, 298–310 K): -390.15 ± 0.17 kJ/mol
- ΔS^0 (α-amylase [3]; Van’t Hoff, 298–310 K): −1156.68 ± 0.13 J/mol/k
- Km (α-glucosidase [4]): 2.6958 ± 0.0821 µg/mL and 3.3979 ± 0.1076 µg/mL and 3.9231 ± 0.1098 µg/mL and 4.1566 ± 0.0981 µg/mL and 4.3847 ± 0.0694 µg/mL
- Vmax (α-glucosidase [4]; C 16 μg/mL): 0.0771 ± 0.0023 ΔOD/min
- Vmax (α-glucosidase [4]; C 32 μg/mL): 0.0601 ± 0.0019 ΔOD/min
- Vmax (α-glucosidase [4]; C 48 μg/mL): 0.0502 ± 0.0014 ΔOD/min
- Vmax (α-glucosidase [4]; C 64 μg/mL): 0.0416 ± 0.0010 ΔOD/min
- Vmax (α-glucosidase [4]; C 80 μg/mL): 0.0361 ± 0.0006 ΔOD/min
- type of inhibition of α-glucosidase (α-glucosidase [4]; Lineweaver–Burk plots): mixed type
- reversibility of inhibition of α-glucosidase (α-glucosidase [4]; [6]): reversible inhibition
- Kis (α-glucosidase [4]; [7]): 40.4085 ± 0.1084 µg/mL
- Ki (α-glucosidase [4]; [8]): 9.8917 ± 0.0514 mg/L
- Random Coil (α-glucosidase [5]): 16.75% and 16.75 ± 0.03%
- α-Helix (α-glucosidase [5]): 22.48 ± 0.05%
- β-Antiparallel (α-glucosidase [5]): 8.02% and 8.02 ± 0.02%
